Test results reported in patent US20150140002A1, “USE OF A PCSK9 INHIBITOR TO TREAT […]” (Sanofi, priority 2013, published 2015).
Marks after values point to notes of the source that are not given here.

Tests used:
[1] = tested on: patients with primary hypercholesterolemia (heFH and non-FH) who are intolerant to statins; assay: Example 3: randomized double-blind trial mAb316P versus ezetimibe (atorvastatin calibrator arm), lipid parameters; type: in vivo, human
Excerpt: The present study was a randomized, double-blind, double-dummy, active-controlled, parallel-group, multi-national, multi-center study in patients with primary hypercholesterolemia and moderate, high, or very high CV risk who are intolerant to statins. The study design is illustrated in FIG. 7.
Primary Efficacy Endpoint: The primary efficacy endpoint was the percent change in calculated LDL-C from baseline to week 24, which was defined as: 100× (calculated LDL-C value at week 24—calculated LDL-C value at baseline)/calculated LDL-C value at baseline. A baseline LDL-C value was needed for each patient as the baseline calculated LDL-C value was the last LDL-C level obtained before the first double-blind study drug injection.
Total-C, HDL-C, TG, ApoB, ApoA-1, and Lp(a) were directly measured by a central laboratory as per a predetermined schedule. Low-density lipoprotein cholesterol was calculated using the Friedewald formula at all visits (except week −15 and the follow-up visit). If TG values exceeded 400 mg/dL (4.52 mmol/L), then the central lab measured (via the beta quantification method) the LDL-C rather than calculate it. Non-HDL-C was calculated by subtracting HDL-C from the total-C. Ratio ApoB/ApoA-1 was calculated.
The double-blind period efficacy endpoint analysis results in the order of statistical hierarchical testing as specified in the above protocol (with multiple testing controlled at the 0.05 significance level) is set forth in Table 12. Primary and key secondary efficacy analyses were performed comparing mAb316P-treated patients to ezetimibe-treated patients. For clarification, the ITT analysis is defined for patients in the ITT population and includes all endpoint assessments in an analysis window, regardless of study treatment dosing status (i.e. includes post-treatment assessments). The on-treatment analysis is defined for patients in the mITT population and includes all endpoint assessments from the first double-blind study drug (capsule or injection, whichever comes first) up to 21 days after the last double-blind study drug injection, or 3 days after the last capsule intake, whichever came first (i.e. includes assessments in the efficacy treatment period). Note: A result is statistically significant if the p-value is s 0.05, in the order of the hierarchical testing.

[2] = tested on: patients with hypercholesterolemia at moderate cardiovascular (CV) risk; conditions: human, in vivo
Excerpt: (§1) The clinical laboratory data consisted of urinalysis and blood analysis, hematology (RBC count, red blood cell distribution width (RDW), reticulocyte count, hemoglobin, hematocrit, platelets, WBC count with differential blood count), standard chemistry (glucose, sodium, potassium, chloride, bicarbonate, calcium, phosphorous, urea nitrogen, creatinine, uric acid, total protein, LDH, albumin, γ Glutamyl Transferase [γGT]), Hepatitis C antibody, liver panel (ALT, AST, ALP, and total bilirubin), and CPK.
(§2) Safety endpoints—Vital signs measurement: Vital signs included: HR, systolic and diastolic BP in sitting position.
(§3) The safety analysis included all randomized and treated patients. Safety data were analyzed by descriptive statistics.

[3] = tested on: patients with hypercholesterolemia at moderate cardiovascular (CV) risk; assay: Example 2: safety (TEAEs, laboratory parameters, vital signs)
Excerpt: as §1, §2, §3

[4] = tested on: patients with primary hypercholesterolemia (heFH and non-FH) who are intolerant to statins; conditions: human, in vivo
[5] = WK24, ITT analysis, listed as EZE
[6] = WK24, ITT analysis, listed as Ezetimibe

Compound: O=C1[C@H](CC[C@H](O)c2ccc(F)cc2)[C@@H](c2ccc(O)cc2)N1c1ccc(F)cc1 [ezetimibe, reference compound]
- Apo A-1 LS mean percent change from baseline ([1]; WK12, ITT analysis): LS mean: 3.9%
- Apo B LS mean percent change from baseline ([1]; WK12, ITT analysis): LS mean: −11.6%
- Fasting Triglycerides LS mean percent change from baseline ([1]; WK12, ITT analysis): LS mean: −9.4%
- HDL-C LS mean percent change from baseline ([1]; WK12, ITT analysis): LS mean: 7.6%
- LDL-C LS mean percent change from baseline ([1]; WK12, ITT analysis): LS mean: −15.6%
- Lp(a) LS mean percent change from baseline ([1]; WK12, ITT analysis): LS mean: −4.5%
- Non-HDL-C LS mean percent change from baseline ([1]; WK12, ITT analysis): LS mean: −15.8%
- Total Cholesterol LS mean percent change from baseline ([1]; WK12, ITT analysis): LS mean: −11.6%
- LDL-C LS mean percent change from baseline ([1]; WK12, on-treatment analysis): LS mean: −18.0%
- Apo A-1 LS mean percent change from baseline ([1]; WK24, ITT analysis): LS mean: 2.9%
- Fasting Triglycerides LS mean percent change from baseline ([1]; WK24, ITT analysis): LS mean: −3.5%
- HDL-C LS mean percent change from baseline ([1]; WK24, ITT analysis): LS mean: 6.8%
- LDL-C LS mean percent change from baseline ([1]; WK24, ITT analysis): −14.6%
- Proportion with LDL-C <70 mg/dL ([1]; WK24, ITT analysis): Proportion = 0.8%
- Proportion with Very High CV LDL-C <70 mg/dL OR Moderate/High CV LDL-C <100 mg/dL ([1]; WK24, ITT analysis): Proportion = 4.1%
- Total Cholesterol LS mean percent change from baseline ([1]; WK24, ITT analysis): LS mean: −10.9%
- Apo B LS mean percent change from baseline [1, 5]: −11.2* %
- LDL-C LS mean percent change from baseline [1, 5]: -14.6%
- Lp(a) LS mean percent change from baseline [1, 5]: −7.3* %
- Non-HDL-C LS mean percent change from baseline [1, 5]: −14.6* %
- Apo B LS mean percent change from baseline [1, 6]: LS mean: −11.2%
- LDL-C LS mean percent change from baseline [1, 6]: LS mean: −14.6%
- Lp(a) LS mean percent change from baseline [1, 6]: LS mean: −7.3%
- Non-HDL-C LS mean percent change from baseline [1, 6]: LS mean: −14.6%
- Apo B LS mean percent change from baseline ([1]; WK24, on-treatment analysis): LS mean: −14.4%
- LDL-C LS mean percent change from baseline ([1]; WK24, on-treatment analysis): LS mean: −17.1%
- Non-HDL-C LS mean percent change from baseline ([1]; WK24, on-treatment analysis): LS mean: −17.1%
- Proportion with LDL-C <70 mg/dL ([1]; WK24, on-treatment analysis): Proportion = 0.8%
- Proportion with Very High CV LDL-C <70 mg/dL OR Moderate/High CV LDL-C <100 mg/dL ([1]; WK24, on-treatment analysis): Proportion = 4.2%
- patients who reached LDL-C goal at week 24 ([1]; goal <70 mg/dL very high risk, <100 mg/dL moderate and high risk): 4.4%
- LS mean LDL-C value at week 24 ([1]; in vivo): 159.9 mg/dL
- change in LDL-C level from baseline ([1]; week 24): -33 mg/dL
- Influenza [2]: 3 (5.9) n (%)
- Alanine aminotransferase (ALT) ≧3× ULN ([3]; Laboratory parameters): 0/51
- Alanine aminotransferase (ALT) ≧3× ULN (if baseline ALT <ULN) or ≧2× the baseline value (if baseline ALT ≧ULN) ([3]; Laboratory parameters): 0/51
- Albumin ≦25 g/L ([3]; Laboratory parameters): 0/50
- Aspartate aminotransferase >3× ULN ([3]; Laboratory parameters): 0/51
- Glucose ≦70 mg/dL (3.9 mmol/L) and <LLN ([3]; Laboratory parameters): 0/50
- Patients with any TEAE ([3]; Safety Population): 40 (78.4) n (%)
- Patients with any TEAE leading to death ([3]; Safety Population): 0 n (%)
- Patients with any TEAE leading to treatment discontinuation ([3]; Safety Population): 4 (7.8) n (%)
- Patients with any treatment emergent SAE ([3]; Safety Population): 1 (2.0) n (%)
- Arthralgia ([3]; TEAE): 2 (3.9) n (%)
- Diarrhea ([3]; TEAE): 2 (3.9) n (%)
- Dizziness ([3]; TEAE): 3 (5.9) n (%)
- Headaches ([3]; TEAE): 2 (3.9) n (%)
- Nasopharyngitis ([3]; TEAE): 8 (15.7) n (%)
- Nausea ([3]; TEAE): 3 (5.9) n (%)
- Upper respiratory tract infection ([3]; TEAE): 5 (9.8) n (%)
- Urinary tract infection ([3]; TEAE): 3 (5.9) n (%)
- back pain ([3]; TEAE): 3 (5.9) n (%)
- General disorders and administration site conditions ([3]; TEAEs of interest): 5 (9.8) n (%)
- Injection site reaction ([3]; TEAEs of interest): 2 (3.9) n (%)
- Muscle disorders ([3]; TEAEs of interest): 2 (3.9) n (%)
- Musculoskeletal and connective tissue disorders ([3]; TEAEs of interest): 11 (21.6) n (%)
- Musculoskeletal and connective tissue disorders NEC ([3]; TEAEs of interest): 5 (9.8) n (%)
- Musculoskeletal pain ([3]; TEAEs of interest): 1 (2.0) n (%)
- Myalgia ([3]; TEAEs of interest): 1 (2.0) n (%)
- muscle spasms ([3]; TEAEs of interest): 1 (2.0) n (%)
- Muscle-related AEs ([3]; discussion): 4%
- injection related AEs ([3]; disposable autoinjector): < 4%
- Muscle-related TEAEs ([3]; in vivo): 2 (4%) patients (%)
- overall percentage of patients who experienced at least one TEAE ([3]; in vivo): 78%
- patients with abnormalities in vital signs (blood pressure, heart rate) ([3]; in vivo): ≤ 2 patients
- patients with blood glucose >126 mg/dL (7 mmol/L) ([3]; in vivo): 1 patients
- patients with elevated creatine kinase levels over 10 times the upper limit of normal ([3]; in vivo): 1 patient
- TEAE class infection ([3]; mostly respiratory): 39.2%
- Cardiac disorders (SOC) [4]: 6 (4.8%) patients (%)
- Ear and labyrinth disorders (SOC) [4]: 4 (3.2%) patients (%)
- General allergic TEAEs (MedDRA SMQ Hypersensitivity) [4]: 9 (7.3%) patients (%)
- Investigations (SOC) [4]: 7 (5.6%) patients (%)
- Psychiatric disorders (SOC) [4]: 5 (4.0%) patients (%)
- Skeletal muscle-related TEAEs (CMQ preferred term) [4]: 40 (32.3%) patients (%)
- TEAEs [4]: 100 (80.6%) patients (%)
- Treatment-emergent SAEs [4]: 10 (8.1%) patients (%)
- Treatment-emergent injection site reactions (ISRs) [4]: 6 (4.8%) patients (%)
- Treatment-emergent neurocognitive disorders [4]: 2 (1.6%) patients (%)
- Treatment-emergent neurologic AEs [4]: 4 (3.2%) patients (%)
- Treatment-emergent skeletal muscle-related events resulting in early treatment discontinuation [4]: 23 (18.5%) patients (%)
- back pain [4]: 5.6%
- early termination due to musculoskeletal and connective tissues disorders SOC events [4]: 26 [21.0%] patients [%]
- fatigue [4]: 3.2%
- headache [4]: 4.8%
- insomnia [4]: 2 (1.6%) reports (%)
- muscle spasms [4]: 7.3%
- muscular weakness [4]: 1.6%
- non-cardiac chest pain (treatment-emergent SAE preferred term) [4]: 4 (3.2%) patients (%)
- palpitations [4]: 2 (1.6%) reports (%)
- paraesthesia [4]: 0%
- patients who prematurely discontinued study treatment due to a TEAE [4]: 31 (25.0%) patients (%)
- patients who prematurely terminated study treatment due to adverse events [4]: 31 (24.8%) patients (%)
- rate of AEs [4]: 81%
- vertigo [4]: 2 (1.6%) reports (%)
